Laboratory results published in patent US20080145313A1, “Compositions and Methods for the Treatment and Prevention of Neoplastic Disorders” (Genesis Research & Development Corporation Limited, priority 2006, published 2008).

Legend:
A549 cells = test: Growth inhibition of siRNA-transfected A549 cells, SYBR Green I DNA content; type: cell-based, human; conditions: 10 nM siRNA; DNA content 96 hours after transfection
Method in brief: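 A549 cells reverse-transfected with 10 nM Stealth siRNAs via Lipofectamine RNAiMAX, seeded at 5×10^3 cells/cm^2 in RPMI 1640/10% FCS; non-specific siRNA control. DNA content read 96 h post-transfection by SYBR Green I fluorescence (ex 485/em 535 nm) after freeze-thaw and Triton X-100 lysis; mean of three wells.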

RRM1 mRNA = RRM1 mRNA level by quantitative RT-PCR in A549 cells; type: cell-based, human; conditions: 0.01 nM siRNA; 24 h post-transfection
Method: RNA was purified from cells using Trizol® extraction as per the manufacturer's protocol (Invitrogen). cDNA was prepared by digesting approximately 200 ng purified RNA with DNAse I (Invitrogen) for 15 minutes at room temperature, followed by 15 minutes at 65° C. in the presence of 25 mM EDTA. 30 ng random primers were added and incubated for 10 minutes at room temperature, 1 minute on ice; Superscript III polymerase (Invitrogen) was added in presence of 5 nM DTT (Sigma, St Louis, Mo.) and 1 mM deoxyribonucleotides (Invitrogen), and the reaction incubated at 25° C. for 5 minutes, followed by an hour at 55° C. cDNA was diluted 1:3 in 10 mM Tris pH 7.0, and quantitative RT-PCR carried out on an ABI Prism 7900HT (Applied Biosciences, Inc., Foster City, Calif.) using FastStart TaqMan SYBRGreen (Roche, Basel, Switzerland) and specific primers at 360 nM for RRM1 and RRM2 and the housekeeping genes HPRT and Lamin. Primer sequence pairs used for RRM1, RRM2, HPRT and lamin are given in SEQ ID NO: 4881 and 4882; 4883 and 4884; 4885 and 4886; 4887 and 4888 respectively.

## SEQ ID NO: 4830: Stealth siRNA targeting RRM1 (chain 1 AAGATCTGCTTATTCAGTAACTGGG; chain 2 AAGAUCUGCUUAUUCAGUAACUGGG; Commercial Stealth siRNA duplex, modification pattern not given here; one strand in two spellings)
A549 cells
  Growth Inhibition in A549 cells: ++ (inhibits by at least 75%)
RRM1 mRNA
  RRM1 mRNA expression: effectively silenced
